Experimental findings from US20240417399A1, “ARYL HYDROCARBON RECEPTOR (AHR) MODULATORS AND THERAPEUTIC USES THEREOF” (GALILEO BIOSYSTEMS, INC., priority 2021, published 2024) are described below.

The subject of series [1] is IL-8. Kind of series: IL-8 release from human keratinocytes, inflammation induced by IL-17 and IFN-α. The series is classed as cell-based. Conditions: human keratinocytes induced by IL-17 and IFN-α. The text has this: FIG. 6B depicts concentration response curves of inhibition of IL-8 release and cell viability for tapiranof.
Series [2] deals with CCL2. In words: CCL2 release from human keratinocytes, inflammation induced by IL-4, IL-13, IL-22 and IFN-γ. Type of series: cell-based. Particulars: human keratinocytes induced by IL-4, IL-13, IL-22 and IFN-γ. The text has this:
(§1) Inflammation of human keratinocytes was induced by IL-4, IL-13, IL-22 and IFN-γ. […] FIG. 5B depicts concentration response curves of CCL2 release and cell viability for tapiranof.

In series [3] the test system is IL-2. Kind of series: IL-2 release from T-cells, inflammation induced by CD2, CD3, and CD28. The series is classed as cell-based. Particulars: highest test concentrations. The text has this:
(§2) Inflammation of T-cells were induced by CD2, CD3, and CD28. […] FIG. 7B depicts concentration response curves of inhibition of IL-2 and IL-4 release and cell viability for tapiranof.

The nature of series [4]: Imiquimod (IMQ)-induced skin inflammation: body weight. Type of series: in vivo. Particulars: Balb/c mice, topical on right ear, 20 μL, 50 mM once daily Day 1 to Day 9. As for the experimental part: (§3) The compounds are administered on the right ear once daily from Day 1 to Day 9 for 9 consecutive days. […] Daily Clobetasol dosage is 20 mg of 0.05% cream. One hour after administration, 15 mg imiquimod (IMQ) cream (5%, Aldaras) is applied topically on the right ear from Day 1 to Day 9 for 9 consecutive days. Ear swelling is measured (mm) as an index of inflammation on Day 0 and thereafter 30 min before dosing on Days 2, 4, 6 and 8. On Day 10, ear swelling is measured 24 hours after the last dosing. Ear edema is calculated by subtracting the thickness of Day 0 (normal control) from Day n (treated ear). Percent inhibition is calculated according to the formula: (Lc−Lt)/Lc×100, where Lc and Lt refer to increase of ear thickness in control and treated mice, respectively. Clinical scoring is done on the same days as the measurement of ear swelling. Body weight is recorded on Day 0 and thereafter daily before dosing. […] Right ears are harvested, weighed after the last ear swelling measurement, and cut into two parts, one part to be kept in 10% formalin for histopathological examination and the second part to be stored in RNAlater® solution at −20° C. for detection of IL-17 A, IL-22, GAPDH, and beta defensin with quantitative real-time PCR (qPCR). Dermal thickness is measured after taking photographs under a light microscope for the histopathological examination sections. […]

The test system of series [5] is Male Balb/c mice. In words: Imiquimod (IMQ)-induced skin inflammation: ear swelling. Type of series: in vivo. Particulars: topical on right ear, 20 μL, 50 mM once daily Day 1 to Day 9, IMQ cream. How it is done: as §3
In series [6] the test system is IL-4. In words: IL-4 release from T-cells, inflammation induced by CD2, CD3, and CD28. Type of series: cell-based. Conditions: highest test concentrations.
From the text: as §2

In series [7] the test system is IL-17. In words: Imiquimod (IMQ)-induced skin inflammation: IL-17 gene expression in ear by qPCR. Type of series: in vivo. Conditions: Balb/c mice, topical on right ear, 20 μL, 50 mM once daily Day 1 to Day 9, IMQ cream. How it is done:
as §3

The test system of series [8] is human keratinocytes. In words: Cell viability of human keratinocytes, inflammation induced by IL-4, IL-13, IL-22 and IFN-γ. The series is classed as cell-based. Particulars: human keratinocytes induced by IL-4, IL-13, IL-22 and IFN-γ.
From the text: as §1

For the compound `O=C(c1nc2ccccc2[nH]1)c1c[nH]c2ccccc12` [Compound 10], in series [1], the “inhibition of IL-8 release” value is given as “inhibited release of IL-8”. Besides, the “inhibition of CCL2 release” value in series [2] is recorded as “inhibited release of CCL2”. Further, the “inhibition of IL-2 release” value in series [3] is “inhibited release of IL-2 and IL-4 at the highest test concentrations”. Further, the “effect on body weights” value in series [4] was “no significant effect on body weights”. The “ear swelling compared to vehicle” value in series [5] is “significant reductions in ear swelling”. Moreover, in series [6], the “inhibition of IL-4 release” value was “inhibited release of IL-2 and IL-4 at the highest test concentrations”. In addition, the “IL-17 gene expression in the ear” value in series [7] was “reduction in IL-17 gene expression”.

For the compound `CC(C)c1c(O)cc(/C=C/c2ccccc2)cc1O` [tapiranof, reference compound], in series [1], the “inhibition of IL-8 release” value is listed as “inhibited release of IL-8”. For the same compound, the “inhibition of CCL2 release” value in series [2] is “inhibited release of CCL2”. Further, the “inhibition of IL-2 release” value in series [3] was “inhibited release of IL-2 and IL-4 at the highest test concentrations”. For the same compound, the cell viability entry in series [8] is recorded as “inhibition of cell viability at higher concentrations”. Besides, in series [6], the “inhibition of IL-4 release” value is “inhibited release of IL-2 and IL-4 at the highest test concentrations”.
